Data on 2 compounds can be found in article PMC11475664, “Alpha-glucosidase inhibitory compounds from Vietnamese lichen Usnea baileyi: in vitro and in silico aspects” (RSC Advances, 2024).

Series [1] is described as follows: Cytotoxicity assay (MTT, 72 h) on Hek293. The class given is cell-based. The settings on record: human. As for the experimental part: (§1) Table S2. Cytotoxicity of compounds 1-6, 11, 1a-1e, and 6a […]
(§2) The method used followed that reported by Nguyen et al. (2022). Briefly, HepG2 and Hek293 cells in a complete medium containing DMEM (HyClone, Cytiva, USA) and 10% fetal bovine serum (FBS) were seeded into a 96-well plate at 5 × 10^4 cells per well. The cells were then incubated at 37°C with 5% CO2. After culturing for 24 h, the old medium was replaced by diluted compounds (in DMSO), positive control Doxorubicin (DOX, Fesenius Kabi, Germany), and negative control dimethyl sulfoxide (DMSO, Sigma-Aldrich, Germany). After 72 h of treatment, MTT (3-(4,5-Dimethyl-2-thiazolyl)-2,5-diphenyl-2H-tetrazolium bromide) was added into each well of the test plate. The plate was incubated at 37°C with 5% CO2 for another 3 h. DMSO was used to dissolve the crystals from the interaction between MTT and viable cells. The absorbance of samples was read at 570 nm by the ELISA Reader (BioTek, USA). Cell death (% inhibition) was estimated by the following formula:
(§3) % Inhibition = 100 − [100 × (A Sample – A B1)/(ADMSO – A B2)]
(§4) Where, ASample: Absorbance of sample, ADMSO: Absorbance of negative control, AB1: Absorbance of blank of sample, AB2: Absorbance of blank of DMSO. The IC50 value and the inhibitory chart were respectively calculated and built using GraphPad Prism software (version 8.0.1, Insightful Science LLC, […]
(§5) Ref: Nguyen HH, Aree T, Nguyen HT, et al. Diorygmones A-B, two new guaiane-sesquiterpenes from the cultured lichen mycobiont of Diorygma sp. Natural Product Research. Published online February 1,

Series [2] deals with Hek293 cells. Description: Cytotoxicity assay (MTT, 72 h) on Hek293. The class given is cell-based. The settings on record: Homo sapiens, read-out: Hek293 IC50. The protocol:
as §1, §2, §3, §4, §5

The target in series [3] is yeast alpha-glucosidase. Briefly: Alpha-glucosidase inhibition assay. The class given is biochemical. To be noted: for IC50: yeast alpha-glucosidase. From the text:
Evaluation of the inhibitory activity of compounds against yeast alpha-glucosidase followed a previous procedure.[30]

A short description of series [4]: Cytotoxicity assay (MTT, 72 h) on HepG2. The class given is cell-based. To be noted: human. As for the experimental part: as §1, §2, §3, §4, §5
In series [5] the test system is HepG2 cells. Description: Cytotoxicity assay (MTT, 72 h) on HepG2. The class given is cell-based. The settings on record: Homo sapiens, read-out: HepG2 IC50. The protocol:
as §1, §2, §3, §4, §5

The test system of series [6] is alpha-glucosidase. Briefly: Inhibitory type assay of 1e on alpha-glucosidase (Lineweaver–Burk plots, pNPG substrate). The class given is biochemical, yeast. The protocol:
Replacing the imine group in 1a and 1b for the aldehyde group in 1 enhances the activity. […] In contrast, the bromine atoms within a depsidone skeleton (1c, 1d, and 6a) decrease the activity. […] At concentrations of 0, 1.82, 3.64, 7.28, and 14.57 μM of 1e, the activity was evaluated. […] This type was identical to that of parmosidone F.[18]
The mechanisms of inhibition of alpha-glucosidase by 1e were determined by Lineweaver–Burk plots using methods similar to those reported in the literature.[18] Enzyme inhibition due to various concentrations of 1e was evaluated by monitoring the effects of different substrate concentrations. For Lineweaver–Burk double reciprocal plots 1/enzyme velocity (1/V) vs. 1/substrate concentration (1/[S]), the inhibition type was determined using various concentrations of pNPG (1 mM, 2 mM, and 4 mM) as a substrate in the presence of different concentrations of the test compounds (0, 1.82, 3.64, 7.28, and 14.57 μM for 1e). The experiments were carried out in 3 replicates. The mixtures were incubated at 37 °C and the optical density was measured at 405 nm every 1 minutes for 30 minutes with the ELx800 Absorbance Microplate Reader (BioTek Instruments, Inc., Vermont, USA). Optimal concentrations of the tested compounds were chosen based on the IC50 values. […]

≈ marks a conversion by molar mass, not a printed value. Like-named read-outs stand apart in the source and are kept apart here.

Usually IC50 stands for the midpoint of a concentration-inhibition curve. In the case of `COC(=O)[C@]12Oc3ccc(-c4ccc5c(c4O)C(=O)[C@@H]4CC[C@@H](C)[C@H](O)[C@]4(C(=O)OC)O5)c(O)c3C(=O)C1=C(O)C[C@H](C)[C@H]2O` [Compound 11, eumitrin A1], the IC50 at 72 h came out at 60.3 µM in series [1] and 62.1 µM in series [4]. Besides, the IC50 was 37.6 ± 4.3 mg/L (≈ 60.2 µM) in series [2] (HEK293, 72 h); 130 ± 2 µM in series [3]; 38.8 ± 0.5 mg/L (≈ 62.1 µM) in series [5] (HepG2, 72 h).

By Ki is commonly meant the dissociation constant of the complex between target and ligand, obtained from inhibition or displacement. As to `Cc1cc(O)c(C=O)c2c1C(=O)Oc1c(C)c(C(=O)O)c(O)c(Cc3c(O)cc(O)c(Cc4c(O)c(C(=O)O)c(C)c5c4Oc4c(C=O)c(O)cc(C)c4C(=O)O5)c3C)c1O2` [Compound 1e, 6,6′-((4,6-dihydroxy-2-methyl-1,3-phenylene)bis(methylene))bis(4-formyl-3,7-dihydroxy-1,9-dimethyl-11-oxo-11H-dibenzo[b,e][1,4]dioxepine-8-carboxylic acid)], the IC50 in series [2] (normal cells Hek293, MTT, 72 h, Table S2) was above 100 mg/L; in series [3] it was 10.4 ± 0.4 µM; in series [5] (liver cancer cell line HepG2, MTT, 72 h, Table S2), above 100 mg/L. Also, the “alpha-glucosidase inhibition, fold stronger than 1” value in series [3] (compared with 1) is “seven-fold”. The inhibition type result in series [6] (Lineweaver–Burk plots, 0, 1.82, 3.64, 7.28, 14.57 μM of 1e) is listed as “mixed-mode inhibitor”. The Ki in series [6] (secondary plot, Fig. 4B, read-out: Ki, inhibition constant of binding with the free enzyme) came out at 6.65 ± 0.48 µM.
